From patent US6972297B2, “2-Hydroxy-mutilin carbamate derivatives for antibacterial use” (SmithKline Beecham p.l.c., priority 2000, dated 2005)

How the values were obtained:
[1] = test system: Staphylococcus aureus Oxford; experiment: conventional MIC assay, Staphylococcus aureus Oxford; assay type: cell-based
Protocol: (§1) Compounds of the present invention were assessed for anti-bacterial activity in a conventional MIC assay against a range of pathogenic organisms.

[2] = test system: Streptococcus pneumoniae 1629; experiment: conventional MIC assay, Streptococcus pneumoniae 1629; assay type: cell-based
Protocol: as §1

[3] = test system: Moraxella catarrhalis Ravasio; experiment: conventional MIC assay, Moraxella catarrhalis Ravasio; assay type: cell-based
Protocol: as §1

[4] = test system: Haemophilius influenzae Q1; experiment: conventional MIC assay, Haemophilius influenzae Q1; assay type: cell-based
Protocol: as §1

[5] = intrinsic clearance in human liver microsome preparations; assay type: in vitro ADME; settings: in the presence of human liver microsomes; R1=2-amino-4-pyridyl, R2=vinyl

| Structure (SMILES) | MIC [1] | MIC [2] | MIC [3] | MIC [4] | intrinsic clearance (CLi, a measure of rate of metabolism) [5] |
| --- | --- | --- | --- | --- | --- |
| C=C[C@]1(C)C[C@@H](OC(=O)NC(=O)c2ccc(N)nn2)[C@]2(C)C(C)CC[C@]3(C[C@H](O)C(=O)C32)[C@@H](C)[C@@H]1O.Cl (stereo partly drawn) [Example 27, (3-Amino-6-pyridazinylcarbonyl)carbamic Acid 2-(S)-hydroxymutilin 14-ester Hydrochloride] | ≤ 4 µg/mL | ≤ 4 µg/mL | ≤ 4 µg/mL | ≤ 4 µg/mL |  |
| C=C[C@]1(C)C[C@@H](OC(=O)NC(=O)c2cnc(N)c([N+](=O)[O-])c2)[C@]2(C)C(C)CC[C@]3(C[C@H](O)C(=O)C32)[C@@H](C)[C@@H]1O (stereo partly drawn) [Example 22, (6-Amino-5-nitronicotinoyl)carbamic Acid 2-(S)-hydroxymutilin 14-ester] | ≤ 4 µg/mL | ≤ 4 µg/mL | ≤ 4 µg/mL | ≤ 4 µg/mL |  |
| C=C[C@]1(C)C[C@@H](OC(=O)NC(=O)c2cc(OC)nc(N)n2)[C@]2(C)C(C)CC[C@]3(C[C@H](O)C(=O)C32)[C@@H](C)[C@@H]1O (stereo partly drawn) [Example 23, (2-Amino-6-methoxypyrimidin-4-ylcarbonyl)carbamic Acid 2-(S)-hydroxymutilin 14-ester] | ≤ 4 µg/mL | ≤ 4 µg/mL | ≤ 4 µg/mL | ≤ 4 µg/mL |  |
| C=C[C@]1(C)C[C@@H](OC(=O)NC(=O)c2ccnc(N)c2)[C@]2(C)C(C)CC[C@]3(C[C@H](O)C(=O)C32)[C@@H](C)[C@@H]1O (stereo partly shown) [Example 2] |  |  |  |  | 6.5 ml/min/g liver |
| C=C[C@]1(C)C[C@@H](OC(=O)NC(=O)c2ccc(N)nc2)[C@]2(C)C(C)CC[C@]3(C[C@H](O)C(=O)C32)[C@@H](C)[C@@H]1O (stereo partly shown) [Example 1] | ≤ 4 µg/mL | ≤ 4 µg/mL | ≤ 4 µg/mL | ≤ 4 µg/mL |  |
| CC[C@]1(C)C[C@@H](OC(=O)NC(=O)c2cccc(N)n2)[C@]2(C)C(C)CC[C@]3(C[C@H](O)C(=O)C32)[C@@H](C)[C@@H]1O (stereo partly drawn) [Example 32, (6-aminopyridin-2-ylcarbonyl)carbamic Acid 19,20-dihydro-2-(S)-hydroxymutilin 14-ester] | ≤ 4 µg/mL | ≤ 4 µg/mL | ≤ 4 µg/mL | ≤ 4 µg/mL |  |
| C=C[C@]1(C)C[C@@H](OC(=O)NC(=O)c2csc(C3CCN(CC(N)=O)CC3)n2)[C@]2(C)C(C)CC[C@]3(C[C@H](O)C(=O)C32)[C@@H](C)[C@@H]1O (stereo partly drawn) [Example 30, [2-(1-Carboxamidomethylpiperidin-4-yl)thiazole-4-carbonyl]carbamic Acid 2-(S)-hydroxymutilin 14-ester] | ≤ 4 µg/mL | ≤ 4 µg/mL | ≤ 4 µg/mL | ≤ 4 µg/mL |  |

Results, then the compound that gave them:

| MIC [1] | MIC [2] | MIC [3] | MIC [4] | intrinsic clearance (CLi, a measure of rate of metabolism) [5] | Structure (SMILES) |
| --- | --- | --- | --- | --- | --- |
| ≤ 4 µg/mL | ≤ 4 µg/mL | ≤ 4 µg/mL | ≤ 4 µg/mL |  | CC[C@]1(C)CC(OC(=O)NC(=O)c2ccc(N)nc2)[C@]2(C)C(C)CC[C@]3(C[C@H](O)C(=O)C23)[C@@H](C)[C@@H]1O (stereo partly drawn) [Example 39, (6-Aminonicotinoyl)carbamic Acid 19,20-dihydro-2-(S)-hydroxymutilin 14-ester] |
| ≤ 4 µg/mL | ≤ 4 µg/mL | ≤ 4 µg/mL | ≤ 4 µg/mL |  | CC[C@]1(C)CC(OC(=O)NC(=O)c2cnc(OC)nc2)[C@]2(C)C(C)CC[C@]3(C[C@H](O)C(=O)C23)[C@@H](C)[C@@H]1O (stereo partly drawn) [Example 38, (2-Methoxypyrimidin-5-ylcarbonyl)carbamic Acid 19,20-dihydro-2-(S)-hydroxymutilin 14-ester] |
| ≤ 4 µg/mL | ≤ 4 µg/mL | ≤ 4 µg/mL | ≤ 4 µg/mL |  | CC[C@]1(C)CC(OC(=O)NC(=O)c2cnc(OC)c(N)c2)[C@]2(C)C(C)CC[C@]3(C[C@H](O)C(=O)C23)[C@@H](C)[C@@H]1O (stereo partly drawn) [Example 36, (5-Amino-6-methoxynicotinoyl)carbamic Acid 19,20-dihydro-2-(S)-hydroxymutilin 14-ester] |
| ≤ 4 µg/mL | ≤ 4 µg/mL | ≤ 4 µg/mL | ≤ 4 µg/mL |  | CC[C@]1(C)CC(OC(=O)NC(=O)c2cnc(NC)nc2)[C@]2(C)C(C)CC[C@]3(C[C@H](O)C(=O)C23)[C@@H](C)[C@@H]1O (stereo partly drawn) [Example 37, (2-Methylaminopyrimidin-5-ylcarbonyl)carbamic Acid 19,20-dihydro-2-(S)-hydroxymutilin 14-ester] |
| ≤ 4 µg/mL | ≤ 4 µg/mL | ≤ 4 µg/mL | ≤ 4 µg/mL |  | CC[C@]1(C)CC(OC(=O)NC(=O)c2cnc(N)s2)[C@]2(C)C(C)CC[C@]3(C[C@H](O)C(=O)C23)[C@@H](C)[C@@H]1O (stereo partly drawn) [Example 35, (2-Aminothiazol-5-ylcarbonyl)carbamic Acid 19,20-dihydro-2-(S)-hydroxymutilin 14-ester] |
| ≤ 4 µg/mL | ≤ 4 µg/mL | ≤ 4 µg/mL | ≤ 4 µg/mL |  | CC[C@]1(C)CC(OC(=O)NC(=O)c2cnc3[nH]c(=O)cnc3c2)[C@]2(C)C(C)CC[C@]3(C[C@H](O)C(=O)C23)[C@@H](C)[C@@H]1O (stereo partly drawn) [Example 34, (3-Oxo-3,4-dihydropyrido[2,3-b]pyrazin-7-ylcarbonyl)carbamic Acid 19,20-dihydro-2-(S)-hydroxymutilin 14-ester] |
